Assay results reported in patent publication US12528815B2, “5-amino-8-(4-pyridyl)-[1,2,4]triazolo[4,3-c]pyrimidin-3-one compounds for use against cancer” (Nxera Pharma UK Limited, priority 2020, dated 2026).
pIC50, pKi: −log10 of the molar value.

Key:
[1] = target: T1, human adenosine A1 receptor (Homo sapiens, UniProt P30542); assay: Inhibition binding assay, human adenosine A1 receptor membranes, [3H]DPCPX; conditions: 1 nM [3H]DPCPX, 25° C., 1 h; IC50 converted to Ki with Cheng-Prusoff; read-out: A1 pKi (converted)
T1 construct: expressed in transfected cells; host or cells: HEK293 cells infected with BacMam (the same paragraph also labels the preparation CHO-hA1)
T1 sequence (P30542 1-326): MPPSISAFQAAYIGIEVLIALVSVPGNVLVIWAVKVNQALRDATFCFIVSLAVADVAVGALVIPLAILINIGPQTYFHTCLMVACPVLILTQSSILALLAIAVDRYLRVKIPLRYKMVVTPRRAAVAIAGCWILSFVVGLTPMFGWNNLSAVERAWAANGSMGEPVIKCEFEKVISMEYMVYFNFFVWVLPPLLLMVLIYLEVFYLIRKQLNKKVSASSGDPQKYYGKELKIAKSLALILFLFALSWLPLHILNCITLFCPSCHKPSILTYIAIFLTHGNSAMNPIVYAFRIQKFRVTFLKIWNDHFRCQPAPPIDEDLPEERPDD
Outline: (§1)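 Membranes from BacMam-infected HEK293 cells (0.2 μg A2A, 1.4 μg A1) incubated 1 h at 25° C with test compound and 1 nM [3H]ZM241385 (A2A; 50 mM Tris-HCl pH 7.4) or [3H]DPCPX (A1; plus 100 mM NaCl, 10 mM MgCl2). Nonspecific: 1 μM CGS15943 or DPCPX. Filtration, scintillation; IC50 converted to Ki via Cheng-Prusoff.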

[2] = target: T2, human adenosine A2A receptor (Homo sapiens, UniProt P29274); assay: Inhibition binding assay, human adenosine A2A receptor membranes, [3H]ZM241385; conditions: 1 nM [3H]ZM241385, HEK293-hA2A membranes, 25° C., 1 h; IC50 converted to Ki with Cheng-Prusoff; read-out: A2A pKi (converted)
T2 construct: expressed in transfected cells; host or cells: HEK293 cells infected with BacMam
T2 sequence (P29274 whole entry): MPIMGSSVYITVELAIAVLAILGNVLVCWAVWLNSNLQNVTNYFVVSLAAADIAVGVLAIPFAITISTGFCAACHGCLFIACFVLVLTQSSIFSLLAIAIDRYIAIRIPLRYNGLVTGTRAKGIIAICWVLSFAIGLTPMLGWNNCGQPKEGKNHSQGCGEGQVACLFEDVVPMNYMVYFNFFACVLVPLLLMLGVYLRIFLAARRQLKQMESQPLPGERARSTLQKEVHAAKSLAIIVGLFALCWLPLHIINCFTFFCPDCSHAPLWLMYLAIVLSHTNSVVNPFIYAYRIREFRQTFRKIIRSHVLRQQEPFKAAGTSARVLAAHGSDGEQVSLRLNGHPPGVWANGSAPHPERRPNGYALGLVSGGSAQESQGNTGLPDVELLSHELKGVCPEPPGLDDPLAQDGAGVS
Outline: as §1

[3] = target: T3, human CB-1 cannabinoid receptor (Homo sapiens, UniProt P21554); assay: CB1 receptor radioligand binding assay, [3H]CP 55940, transfected CHO cell membranes; conditions: 0.5 nM [3H]CP 55940, CHO membrane homogenates, 120 min at 37° C.
T3 construct: expressed in transfected cells; host or cells: CHO cells
T3 sequence (P21554 whole entry): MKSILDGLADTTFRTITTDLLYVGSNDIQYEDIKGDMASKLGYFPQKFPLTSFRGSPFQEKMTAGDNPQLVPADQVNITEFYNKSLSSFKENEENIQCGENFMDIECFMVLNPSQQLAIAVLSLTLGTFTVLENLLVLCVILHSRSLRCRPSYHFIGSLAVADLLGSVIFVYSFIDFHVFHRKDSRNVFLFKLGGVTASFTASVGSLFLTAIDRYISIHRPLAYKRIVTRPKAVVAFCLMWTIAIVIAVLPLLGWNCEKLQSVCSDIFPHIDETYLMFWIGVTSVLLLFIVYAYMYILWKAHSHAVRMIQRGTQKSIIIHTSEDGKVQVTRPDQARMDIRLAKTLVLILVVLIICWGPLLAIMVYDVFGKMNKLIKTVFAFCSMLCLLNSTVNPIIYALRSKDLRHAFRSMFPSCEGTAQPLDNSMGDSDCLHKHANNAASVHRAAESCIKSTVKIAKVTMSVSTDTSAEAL
Procedure: Nonspecific binding is determined in the presence of 10 μM WIN 55212-2.
Following incubation, the samples are filtered rapidly under vacuum through glass fiber filters (GF/B, Packard) presoaked with 0.3% PEI and rinsed several times with an ice-cold buffer containing 50 mM Tris-HCl (pH 7.4) and 0.5% BSA using a 96-sample cell harvester (Unifilter, Packard). The filters are dried then counted for radioactivity in a scintillation counter (Topcount, Packard) using a scintillation cocktail (Microscint 0, Packard).
The standard reference compound is CP 55940 which is tested in each experiment at several concentrations to obtain a competition curve from which its IC50 is calculated.

[4] = target: T4, human CB1 receptor (Homo sapiens, UniProt P21554); assay: CB1 receptor antagonism, agonist-induced cAMP modulation (HTRF) in transfected CHO cells; type: cell-based; conditions: read-out: Antag IC50
T4 construct: expressed in transfected cells; host or cells: CHO cells
T4 sequence (P21554 whole entry): as above
Procedure: Receptor antagonism: Evaluation of the antagonist activity of compounds at the human CB1 receptor expressed in transfected CHO cells, determined by measuring their effects on agonist-induced cAMP modulation using the HTRF detection method.
Thereafter, the reference agonist CP 55940 and the adenylyl cyclase activator NKH 477 are added at respective final concentrations of 3 nM and 3 μM.
For basal control measurements, CP 55940 is omitted from the wells containing 3 μM AM 281.
Following 20 min incubation at 37° C., the cells are lysed and the fluorescence acceptor (D2-labeled cAMP) and fluorescence donor (anti-cAMP antibody labeled with europium cryptate) are added.
After 60 min at room temperature, the fluorescence transfer is measured at λex=337 nm and λem=620 and 665 nm using a microplate reader (Rubystar, BMG). The cAMP concentration is determined by dividing the signal measured at 665 nm by that measured at 620 nm (ratio).
The standard reference antagonist is AM 281, which is tested in each experiment at several concentrations to generate a concentration-response curve from which its IC50 value is calculated.

Row | SMILES | Ki [1] [µM] | Ki [2] [µM] | pKi [3] | pIC50 [4]
1 | COc1cc(-c2c(-c3ccccc3)nc(N)n3c(=O)n(Cc4ccc(Cl)cn4)nc23)cc(CO)n1 [Example 1-65, 5-amino-2-[(5-chloro-2-pyridyl)methyl]-8-[2-(hydroxymethyl)-6-methoxy-4-pyridyl]-7-phenyl-[1,2,4]triazolo[4,3-c]pyrimidin-3-one] | 0.794 | 0.000794 | 4.70 | 5.03
2 | Nc1nc(Cn2nc3c(-c4cc(Cl)nc(CO)c4)c(-c4ccccc4)nc(N)n3c2=O)ccc1F [Example 1-70, 5-amino-2-[(6-amino-5-fluoro-2-pyridyl)methyl]-8-[2-chloro-6-(hydroxymethyl)-4-pyridyl]-7-phenyl-[1,2,4]triazolo[4,3-c]pyrimidin-3-one] | 0.0501 | 0.000316 | 4.21 | < 4.00
3 | Cc1cc(-c2c(-c3ccccc3)nc(N)n3c(=O)n(Cc4ccc(F)cn4)nc23)cc(N2CCC2)n1 [Example 1-75, 5-amino-8-[2-(azetidin-1-yl)-6-methyl-4-pyridyl]-2-[(5-fluoro-2-pyridyl)methyl]-7-phenyl-[1,2,4]triazolo[4,3-c]pyrimidin-3-one] | 0.126 | 0.00316 | 4.41 | 4.75
4 | Cc1cc(-c2c(-c3ccccc3)nc(N)n3c(=O)n(CCc4ccccc4)nc23)cc(C)n1 [Example 1-80, 5-amino-8-(2,6-dimethyl-4-pyridyl)-7-phenyl-2-(2-phenylethyl)-[1,2,4]triazolo[4,3-c]pyrimidin-3-one] | 0.126 | 0.002 | 4.97 | 4.99
5 | Cc1cc(-c2c(-c3ccccc3)nc(N)n3c(=O)n(C[C@@H]4COCCN4Cc4ccccc4)nc23)cc(C)n1 [Example 1-101, 5-amino-2-[[(3R)-4-benzylmorpholin-3-yl]methyl]-8-(2,6-dimethyl-4-pyridyl)-7-phenyl-[1,2,4]triazolo[4,3-c]pyrimidin-3-one] | 0.01 | 0.000631 | 5.40 | 5.57

Next, values leading:

Row | Ki [1] [µM] | Ki [2] [µM] | pKi [3] | pIC50 [4] | SMILES
6 | 0.501 | 0.002 | 4.66 | 4.58 | Cc1cc(-c2c(-c3ccccc3)nc(N)n3c(=O)n(CCC(F)(F)F)nc23)cc(C)n1 [Example 2-6, 5-amino-8-(2,6-dimethyl-4-pyridyl)-7-phenyl-2-(3,3,3-trifluoropropyl)-[1,2,4]triazolo[4,3-c]pyrimidin-3-one]
7 | 0.1 | 0.000398 | 5.41 | 5.46 | Cc1cc(-c2c(-c3ccccc3)nc(N)n3c(=O)n(CC4CCC(F)(F)C4)nc23)cc(C)n1 (stereo not drawn) [Example 2-26, 5-amino-2-[(3,3-difluorocyclopentyl)methyl]-8-(2,6-dimethyl-4-pyridyl)-7-phenyl-[1,2,4]triazolo[4,3-c]pyrimidin-3-one]
8 | 0.251 | 0.00251 | 4.58 | 4.71 | Cc1cc(-c2c(-c3ccccc3)nc(N)n3c(=O)n(CCOC(F)(F)F)nc23)cc(C)n1 [Example 2-30, 5-amino-8-(2,6-dimethyl-4-pyridyl)-7-phenyl-2-[2-(trifluoromethoxy)ethyl]-[1,2,4]triazolo[4,3-c]pyrimidin-3-one]
9 | > 3.16 | 0.0398 | 4.12 | < 4.00 | Cc1cc(-c2c(-c3ccc(F)cn3)nc(N)n3c(=O)n(CCC(F)(F)F)nc23)cc(C)n1 [Example 2-40, 5-amino-8-(2,6-dimethyl-4-pyridyl)-7-(5-fluoro-2-pyridyl)-2-(3,3,3-trifluoropropyl)-[1,2,4]triazolo[4,3-c]pyrimidin-3-one]
10 | 0.501 | 0.00126 | 4.07 | < 4.00 | Cc1cc(-c2c(-c3ccccc3)nc(N)n3c(=O)n(CCC(F)(F)F)nc23)cc(CO)n1 [Example 2-51, 5-amino-8-[2-(hydroxymethyl)-6-methyl-4-pyridyl]-7-phenyl-2-(3,3,3-trifluoropropyl)-[1,2,4]triazolo[4,3-c]pyrimidin-3-one]
11 | 0.501 | 0.00126 | 4.42 | < 4.00 | Nc1nc(-c2ccccc2)c(-c2cc(CO)nc(C(F)(F)F)c2)c2nn(CCC(F)(F)F)c(=O)n12 [Example 2-53, 5-amino-8-[2-(hydroxymethyl)-6-(trifluoromethyl)-4-pyridyl]-7-phenyl-2-(3,3,3-trifluoropropyl)-[1,2,4]triazolo[4,3-c]pyrimidin-3-one]
12 | 0.398 | 0.00631 | 5.09 | 5.96 | Cc1cc(-c2c(-c3ccccc3)nc(N)n3c(=O)n(C4CCCN(C(=O)OC(C)(C)C)C4)nc23)cc(C)n1 (stereo not drawn) [Example 2-54, tert-butyl 3-[5-amino-8-(2,6-dimethyl-4-pyridyl)-3-oxo-7-phenyl-[1,2,4]triazolo[4,3-c]pyrimidin-2-yl]piperidine-1-carboxylate]
13 | 0.251 | 0.01 | 4.14 | < 4.00 | Cc1cc(-c2c(-c3ccccc3)nc(N)n3c(=O)n(CC(C)C)nc23)cc(C)[n+]1[O-] [Example 2-57, 5-amino-8-(2,6-dimethyl-1-oxido-pyridin-1-ium-4-yl)-2-isobutyl-7-phenyl-[1,2,4]triazolo[4,3-c]pyrimidin-3-one]
14 | 0.2 | 0.00794 | 4.84 | 5.62 | Cc1cc(-c2c(-c3ccccc3)nc(N)n3c(=O)n(CC45C6C7C4C4C5C6C74F)nc23)cc(CO)n1 (stereo not drawn) [Example 2-60, 5-amino-2-[(4-fluorocuban-1-yl)methyl]-8-[2-(hydroxymethyl)-6-methyl-4-pyridyl]-7-phenyl-[1,2,4]triazolo[4,3-c]pyrimidin-3-one]
15 | 1 | 0.002 | 4.28 | < 4.00 | Cc1cc(-c2c(-c3ccccc3)nc(N)n3c(=O)n(CC4CCOCC4)nc23)cc(C)n1 [Example 2-73, 5-amino-8-(2,6-dimethyl-4-pyridyl)-7-phenyl-2-(tetrahydropyran-4-ylmethyl)-[1,2,4]triazolo[4,3-c]pyrimidin-3-one]
